According to ChEMBL document CHEMBL2390897, “3-Anhydro-6-hydroxy-ophiobolin A, a new sesterterpene inhibiting the growth of methicillin-resistant Staphylococcus aureus and inducing the cell death by apoptosis on K562, from the phytopathogenic fungus Bipolaris oryzae” (Bioorg Med Chem Lett, 2013):
≈ marks a conversion by molar mass, not a printed value. Calls of active or inactive are those of the source. No cut-off for these calls is given here.

Key:
Bacillus subtilis = experiment: Antimicrobial activity against Bacillus subtilis ATCC 6051; type: functional
HepG2 = experiment: Cytotoxicity against human HepG2 cells after 48 hrs by MTT assay; type: functional, cell-based; conditions: HepG2, 48 h
Pseudomonas aeruginosa = experiment: Antimicrobial activity against Pseudomonas aeruginosa PAO1; type: functional
Staphylococcus aureus [1] = experiment: Antimicrobial activity against Staphylococcus aureus ATCC 6538; type: functional
K562 [2] = experiment: Cytotoxicity against human K562 cells after 48 hrs by MTT assay; type: functional, cell-based; conditions: K562, 48 h
Staphylococcus aureus [3] = experiment: Antimicrobial activity against methicillin-resistant Staphylococcus aureus; type: functional
Candida albicans = experiment: Antimicrobial activity against Candida albicans SC5314; type: functional
K562 [4] = experiment: Induction of apoptosis in human K562 cells assessed as viable cells at 4 ug/ml after 5 hrs using annexin-V-FITC and propidium iodide staining by flow cytometry (reference value: 99.86%); type: functional; conditions: K562, 5 h, read-out: Activity
K562 [5] = experiment: Induction of apoptosis in human K562 cells assessed as cell survival at 1 ug/ml after 5 hrs using annexin-V-FITC and propidium iodide staining by flow cytometry (reference value: 97.96%); type: functional; conditions: K562, 5 h, read-out: Activity
K562 [6] = experiment: Induction of apoptosis in human K562 cells assessed as cell survival at 0.25 ug/ml after 5 hrs using annexin-V-FITC and propidium iodide staining by flow cytometry (reference value: 97.96%); type: functional; conditions: K562, 5 h, read-out: Activity
K562 [7] = experiment: Induction of apoptosis in human K562 cells assessed as […] of Bcl-2 at 2 ug/ml after 4 hrs by Western blot analysis; type: functional, cell-based
K562 [8] = experiment: Induction of apoptosis in human K562 cells assessed as cell survival at 1 ug/ml after 6 hrs using annexin-V-FITC and propidium iodide staining by flow cytometry (reference value: 97.89%); type: functional; conditions: K562, 6 h, read-out: Activity
K562 [9] = experiment: Induction of apoptosis in human K562 cells assessed as cell survival at 1 ug/ml after 8 hrs using annexin-V-FITC and propidium iodide staining by flow cytometry (reference value: 97.89%); type: functional; conditions: K562, 8 h, read-out: Activity
K562 [10] = experiment: Induction of apoptosis in human K562 cells assessed as down regulation of c-Myc at 2 ug/ml after 3 hrs by Western blot analysis; type: functional, cell-based
K562 [11] = experiment: Induction of apoptosis in human K562 cells assessed as effect on Bcl-XL expression at 2 ug/ml after 4 hrs by Western blot analysis; type: functional, cell-based
K562 [12] = experiment: Induction of apoptosis in human K562 cells assessed as viable cells at 0.75 ug/ml after 5 hrs using annexin-V-FITC and propidium iodide staining by flow cytometry (reference value: 99.86%); type: functional; conditions: K562, 5 h, read-out: Activity
K562 [13] = experiment: Induction of apoptosis in human K562 cells assessed as cell survival at 0.75 ug/ml after 5 hrs using annexin-V-FITC and propidium iodide staining by flow cytometry (reference value: 97.96%); type: functional; conditions: K562, 5 h, read-out: Activity
K562 [14] = experiment: Induction of apoptosis in human K562 cells assessed as cell survival at 4 ug/ml after 5 hrs using annexin-V-FITC and propidium iodide staining by flow cytometry (reference value: 97.96%); type: functional; conditions: K562, 5 h, read-out: Activity
K562 [15] = experiment: Induction of apoptosis in human K562 cells assessed as viable cells at 0.5 ug/ml after 5 hrs using annexin-V-FITC and propidium iodide staining by flow cytometry (reference value: 99.86%); type: functional; conditions: K562, 5 h, read-out: Activity
K562 [16] = experiment: Induction of apoptosis in human K562 cells assessed as cell survival at 1 ug/ml after 4 hrs using annexin-V-FITC and propidium iodide staining by flow cytometry (reference value: 97.89%); type: functional; conditions: K562, 4 h, read-out: Activity
K562 [17] = experiment: Induction of apoptosis in human K562 cells assessed as viable cells after 3 hrs using annexin-V-FITC and propidium iodide staining by flow cytometry (reference value: 93.69%); type: functional, cell-based
K562 [18] = experiment: Induction of apoptosis in human K562 cells assessed as cell survival at 1 ug/ml after 1 hr using annexin-V-FITC and propidium iodide staining by flow cytometry (reference value: 97.89%); type: functional; conditions: K562, 1 h, read-out: Activity
K562 [19] = experiment: Induction of apoptosis in human K562 cells assessed as viable cells at 2 ug/ml after 5 hrs using annexin-V-FITC and propidium iodide staining by flow cytometry (reference value: 99.86%); type: functional; conditions: K562, 5 h, read-out: Activity
K562 [20] = experiment: Induction of apoptosis in human K562 cells assessed as cell survival at 2 ug/ml after 5 hrs using annexin-V-FITC and propidium iodide staining by flow cytometry (reference value: 97.96%); type: functional; conditions: K562, 5 h, read-out: Activity
K562 [21] = experiment: Induction of apoptosis in human K562 cells assessed as viable cells at 2 ug/ml using annexin-V-FITC and propidium iodide staining by flow cytometry (reference value: 93.69%); type: functional, cell-based; conditions: TDE = time-dependent effect
K562 [22] = experiment: Induction of apoptosis in human K562 cells assessed as cell survival at 0.5 ug/ml after 5 hrs using annexin-V-FITC and propidium iodide staining by flow cytometry (reference value: 97.96%); type: functional; conditions: K562, 5 h, read-out: Activity
K562 [23] = experiment: Induction of apoptosis in human K562 cells assessed as viable cells at 2 ug/ml after 3 hrs using annexin-V-FITC and propidium iodide staining by flow cytometry (reference value: 93.69%); type: functional; conditions: K562, 3 h, read-out: Activity
K562 [24] = experiment: Induction of apoptosis in human K562 cells assessed as viable cells at 1 ug/ml after 5 hrs using annexin-V-FITC and propidium iodide staining by flow cytometry (reference value: 99.86%); type: functional; conditions: K562, 5 h, read-out: Activity
K562 [25] = experiment: Induction of apoptosis in human K562 cells assessed as cell survival at 1 ug/ml after 2 hrs using annexin-V-FITC and propidium iodide staining by flow cytometry (reference value: 97.89%); type: functional; conditions: K562, 2 h, read-out: Activity

CN[C@H](CC(C)C)C(=O)N[C@H]1C(=O)N[C@@H](CC(N)=O)C(=O)N[C@H]2C(=O)N[C@H]3C(=O)N[C@H](C(=O)N[C@H](C(=O)O)c4cc(O)cc(O)c4-c4cc3ccc4O)[C@H](O)c3ccc(c(Cl)c3)Oc3cc2cc(c3O[C@@H]2O[C@H](CO)[C@@H](O)[C@H](O)[C@H]2O[C@H]2C[C@](C)(N)[C@H](O)[C@H](C)O2)Oc2ccc(cc2Cl)[C@H]1O [VANCOMYCIN]
MIC (Bacillus subtilis): 0.5 µg/mL (≈ 0.345 µM)

CC(C)=C[C@H]1C[C@H](C)[C@]2(CC[C@]3(C)C[C@@H]4C(C)=CC(=O)[C@@H]4/C(C=O)=C\C[C@H]32)O1
IC50 (HepG2): 55.7 µM
MIC (Pseudomonas aeruginosa): > 100 µg/mL
MIC (Staphylococcus aureus [1]): > 100 µg/mL
IC50 (K562 [2]): 39.5 µM
MIC (Staphylococcus aureus [3]): > 100 µg/mL
MIC (Bacillus subtilis): > 100 µg/mL
MIC (Candida albicans): > 100 µg/mL

CC(C)=C[C@H]1C[C@H](C)[C@]2(CC[C@]3(C)C[C@@H]4C(C)=CC(=O)[C@H]4/C(C=O)=C\C[C@H]32)O1 [3-ANHYDRO-6-EPI-OPHIOBOLIN A]
IC50 (HepG2): 47.1 µM
MIC (Pseudomonas aeruginosa): > 100 µg/mL
MIC (Staphylococcus aureus [1]): > 100 µg/mL
IC50 (K562 [2]): 35.6 µM
MIC (Staphylococcus aureus [3]): > 100 µg/mL
MIC (Bacillus subtilis): > 100 µg/mL
MIC (Candida albicans): > 100 µg/mL

O=C(O)c1cn(C2CC2)c2cc(N3CCNCC3)c(F)cc2c1=O [CIPROFLOXACIN]
MIC (Pseudomonas aeruginosa): 1 µg/mL (≈ 3.02 µM)

COc1cc([C@@H]2c3cc4c(cc3[C@@H](O[C@@H]3O[C@@H]5CO[C@@H](C)O[C@H]5[C@H](O)[C@H]3O)[C@H]3COC(=O)[C@H]23)OCO4)cc(OC)c1O [ETOPOSIDE]
IC50 (HepG2): 6.41 µM

CC(=O)N1CCN(c2ccc(OCC3COC(Cn4ccnc4)(c4ccc(Cl)cc4Cl)O3)cc2)CC1 (configuration not stated) [KETOCONAZOLE]
MIC (Candida albicans): 0.02 µg/mL (≈ 0.0376 µM)

CC(C)=C[C@H]1C[C@H](C)[C@]2(CC[C@]3(C)C[C@@H]4C(C)=CC(=O)[C@]4(O)/C(C=O)=C\C[C@H]32)O1
viability at 4 µg/mL (K562 [4]): 1.78%
viability at 1 µg/mL (K562 [5]): 50.2%
viability at 0.25 µg/mL (K562 [6]): 96.6%
IC50 (HepG2): 6.49 µM
Activity (K562 [7]): Active
MIC (Pseudomonas aeruginosa): > 100 µg/mL
viability at 1 µg/mL (K562 [8]): 27.5%
MIC (Staphylococcus aureus [1]): 12.5 µg/mL (≈ 31.4 µM)
viability at 1 µg/mL (K562 [9]): 5.86%
Activity (K562 [10]): Active
Activity (K562 [11]): inactive
viability at 0.75 µg/mL (K562 [12]): 62.8%
viability at 0.75 µg/mL (K562 [13]): 61.5%
IC50 (K562 [2]): 4.06 µM
viability at 4 µg/mL (K562 [14]): 2.45%
MIC (Staphylococcus aureus [3]): 12.5 µg/mL (≈ 31.4 µM)
MIC (Bacillus subtilis): 12.5 µg/mL (≈ 31.4 µM)
viability at 0.5 µg/mL (K562 [15]): 87.5%
MIC (Candida albicans): 50 µg/mL (≈ 125 µM)
viability at 1 µg/mL (K562 [16]): 56%
Activity (K562 [17]): Dose-dependent effect
viability at 1 µg/mL (K562 [18]): 91.3%
viability at 2 µg/mL (K562 [19]): 25.9%
viability at 2 µg/mL (K562 [20]): 26.9%
Activity (K562 [21]): tde
viability at 0.5 µg/mL (K562 [22]): 88.3%
viability at 2 µg/mL (K562 [23]): 32.6%
viability at 1 µg/mL (K562 [24]): 49.6%
viability at 1 µg/mL (K562 [25]): 69.7%
